# Reference: US20240374631A1, “A COMPOSITION FOR IMPROVING GUT MICROBIOTA, BEHAVIOURAL PATTERN, ALPHA-SYNUCLEIN LEVELS, SLEEP PATTERN AND/OR SERUM MELATONIN” (GN Corporation Co Ltd, priority 2021, published 2024)
# System: α-synuclein on the neuroblastoma cell line (SHSY-5Y Tet-On: SCC291)
# Assay: Expression of α-synuclein on neuroblastoma cell line stimulated with beta-glucan or PMA (glutaraldehyde-fixed cellular ELISA, 3 days)
# Assay type: cell-based
# Details: BG-AF202 50 μg/mL, PMA 500 ng/mL
# Description: Neuroblastoma cell line (SHSY-5Y Tet-On: SCC291) (MERCK) was suspended in 10% FCS-DMEM/F12 medium and seeded into 96-well microplates to achieve a cell count of 5×10^4 cells/well. After 24 hours of incubation, the cells were washed with 10% FCS-DMEM/F12 medium and new 10% FCS-DMEM/F12 medium was added.
# Then, β-glucan AFO-202 (50 μg/mL) and PMA (500 ng/mL) (Sigma) were added to the medium, and the cells were cultured for 1 to 3 days. After incubation, the wells were washed three times with PBS and fixed in 0.25% glutaraldehyde-PBS for 1 hour at room temperature. After fixation, the wells were washed three times with PBS-0.05% Tween (PBS-T). After washing the wells with PBS-T, 50 μL of 500-fold diluted α-synuclein polyclonal rabbit antibody (proteintech Co. 10842-1-AP) was added to the wells and incubated at room temperature for 1 h. Then, 2% BSA-PBS-T was added and left for 1 h (to block non-specific reactions).
# After 1 hour, the wells were washed with PBS-T and 50 μL of biotin-labeled anti-rabbit IgG antibody (Cosmo Bio) diluted 5,000-fold was added to the wells and the reaction was carried out for 40 minutes at room temperature. […]
# After that, the absorbance (OD value) was measured with a microplate reader (450 nm) (Tosoh). Data were expressed as […] value (sample OD value−blank OD value). The expression rate was calculated based on the control (None). […]
smiles,measurement,setting,value
CCCCCCCCCCCCCC(=O)O[C@@H]1[C@@H](C)[C@@]2(O)[C@@H](C=C(CO)C[C@]3(O)C(=O)C(C)=C[C@@H]23)[C@@H]2C(C)(C)[C@]12OC(C)=O [PMA],α-synuclein expression (%) vs. None,,50.1%
same,δOD value,None 0.281,0.166
